Values of other authors in patent publication US6995149B1, “Contraceptive process and kit for female mammals, comprising a combination of gestagen and oestrogen” (Schering AG, priority 1995, dated 2006).

What was measured:
women = conditions: daily dose of 70 to 80 μg, pure gestagen preparation; in almost all women
[1] = very small doses; ovulation is not always inhibited

| Compound | inhibition of ovulation (women) | contraceptive protection [1] |
| --- | --- | --- |
| C#C[C@]1(O)CC[C@H]2[C@@H]3CCC4=CC(=O)CC[C@@H]4[C@H]3C(=C)C[C@@]21CC [3-ketodesogestrel] | In almost all women, these dosages cause inhibition of ovulation |  |
| CC(=O)O[C@]1(C(C)=O)CC[C@H]2[C@@H]3C=C(Cl)C4=CC(=O)CC[C@]4(C)[C@H]3CC[C@@]21C [chloromadinone acetate] |  | afforded contraceptive protection |
| C#C[C@]1(O)CC[C@H]2[C@@H]3CCC4=CCCC[C@@H]4[C@H]3C(=C)C[C@@]21CC [desogestrel] | In almost all women, these dosages cause inhibition of ovulation |  |
